Experiments:
[1] = tested on: fluconazole-resistant C. albicans strains CaCi2, 8 and 17; experiment: Filamentation, liquid assay; assay type: cell-based; details: 5 μM
Procedure: For liquid assays, C. albicans strains were grown overnight in YPD with DMSO or 5 μM gepinacin. After dilution to an OD600 of 0.1 in Spider media, growth was continued for an additional 3 hours with agitation at 37° C. in the presence of compound before transfer to a 24 well plate for imaging (Shen, et al. (2008) Proc Natl Acad Sci USA 105, 20918-20923). Assays with S. cerevisiae strain Sigma 1278B on solid media were performed as previously described (Liu, et al. (1994) Science 266, 1723-1726) except gepinacin was added directly to partially cooled plate media and colonies were imaged after growth for 6 or 9 days at 30° C.
Because of its role in tissue invasion, a key determinant of fungal virulence is the ability to switch between yeast and filamentous forms (Shapiro, et al. (2011) Microbiol Mol Biol Rev 75, 213-267; Sudbery, (2011) Nat Rev Microbiol 9, 737-748; Noble, et al. (2010) Nat Genet 42, 590-598). A previous report has shown that mature GPI-anchors are required for this process (Richard, et al. (2002) Microbiology 148, 2125-2133). […] In the absence of gepinacin, all three drug-resistant clinical isolates underwent marked transformation to large macroscopic mats, readily visible to the eye. […]

[2] = tested on: S. cerevisiae strains deleted for IRE1 or HAC1; experiment: Antifungal susceptibility testing of UPR-deficient strains; assay type: cell-based; details: 48 hour
Procedure: (A) Immunoblots of lysates prepared from S. cerevisiae treated with gepinacin showing GPI-anchor-selective impairment of protein maturation. The unprocessed (u), precursor (p), and mature (m) forms of the reporter proteins are indicated. The identity of the tagged reporter proteins (top of panel) and the antibodies used for their detection (bottom of panel) are also indicated. Treatment conditions are DMSO (0.05%), gepinacin (GPN, 10 μM) or tunicamycin (Tun, 10 μM). The same lysate was used for both blots. […] GFP expression was monitored by flow cytometry. (C) Anti-fungal susceptibility testing of strains deleted for IRE1 (activator of the UPR) or HAC1 (effector of the UPR) showing their increased sensitivity to gepinacin.
Anti-fungal susceptibility testing of strains bearing deletion of IRE1 (activator of the UPR) or HAC1 (effector of the UPR) using either […] (A) or fluconazole (B). Growth was measured by OD600 after 48 hour exposure to serial dilutions of the compounds as indicated. Results are expressed as a fraction of the OD600 measured in the absence of gepinacin. The mean and standard deviation of triplicate determinations are shown.

[3] = biological target: T1, Gwt1 (Saccharomyces cerevisiae, UniProt P47026); experiment: In vitro acylation assay with yeast membranes; assay type: biochemical, S. cerevisiae
T1 construct: Wildtype S. cerevisiae BY4741; endogenous in cells; host or cells: S. cerevisiae BY4741 (wild type)
T1 sequence (P47026 1-490): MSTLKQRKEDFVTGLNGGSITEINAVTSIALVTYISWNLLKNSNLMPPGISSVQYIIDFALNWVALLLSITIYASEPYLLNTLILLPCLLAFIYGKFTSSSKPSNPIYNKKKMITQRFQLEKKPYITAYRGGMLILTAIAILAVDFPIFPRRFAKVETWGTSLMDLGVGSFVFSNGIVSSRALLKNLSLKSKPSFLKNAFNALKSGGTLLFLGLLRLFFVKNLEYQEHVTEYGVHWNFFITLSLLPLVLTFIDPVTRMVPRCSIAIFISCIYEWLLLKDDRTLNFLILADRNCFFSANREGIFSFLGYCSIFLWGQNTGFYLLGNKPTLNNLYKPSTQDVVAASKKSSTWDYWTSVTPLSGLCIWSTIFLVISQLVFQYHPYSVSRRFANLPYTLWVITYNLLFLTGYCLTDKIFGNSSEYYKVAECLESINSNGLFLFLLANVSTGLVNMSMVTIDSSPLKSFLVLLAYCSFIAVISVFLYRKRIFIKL
Procedure: Experiments were performed using a previously published protocol (Umemara, et al. (2003) J Biol Chem 278, 23639-23647) with the following modifications; UDP[^3H]GlcNAc was used instead of [^14C] and TLC plates were imaged by autoradiography. Lipid extracts were treated overnight with phosphatidylinositol-specific phospholipase C to confirm that the band identified as GlcN-(acyl)PI was resistant to cleavage (data not shown).
Production of GPI-anchors begins on the cytoplasmic surface of the ER but is completed on the luminal side. Gwt1 (in yeast) or PIG-W (mammalian) acts at the first step on the luminal side of the ER, the acylation of glucosamine phosphatidylinositol (GlcN-PI) (FIG. 2b) (Sagane, et al. (2011) J Biol Chem 286, 14649-14658; Murakami, et al. (2003) Mol Biol Cell 14, 4285-4295). To provide direct biochemical evidence that Gwt1 is the proximal protein target of gepinacin in vitro acylation reactions were performed using yeast membrane preparations. UDP[^3H]GlcNAc was incubated with the membranes, and the resulting lipid products were recovered by chemical extraction and fractionated by silica gel thin layer chromatography (TLC). The appearance of a phospholipase-C insensitive band indicated the production of the acylated product.

[4] = tested on: S. cerevisiae; experiment: Antifungal susceptibility testing; assay type: cell-based
Procedure: (§1) Sensitivity to gepinacin was determined in 96-well, flat bottom microtiter plates using a modification of the NCCLS broth microdilution protocol CLS M27-A3 and RPMI as culture medium. Fungi were inoculated at ˜10^3 cells per ml and incubated for 48 hours at 37° C. after which plates were sealed, shaken and the optical density read at 600 nm (OD600) on a Tecan Safire 2 plate reader. All samples were run in duplicate or triplicate and assays were repeated at least once. Results are expressed as fraction of growth in the absence of compound and the mean and standard deviation are plotted. For the mold A. terreus, inoculum was 10^4 cells per ml and plates were incubated at 35° C. for 48 hours in the dark. Plates were then visually scored as specified by CLSI document M38-A2 to determine the MIC50 and MIC80.

[5] = tested on: Candida glabrata; experiment: Antifungal susceptibility testing; assay type: cell-based
Procedure: as §1

SMILES: COc1ccc(NC(=O)COc2cccc(OCC(C)C)c2)cc1 [gepinacin]
- filamentation in Spider medium [1]: completely blocked
- change of toxicity by deletion of HAC1 or IRE1 [2]: greatly increased the toxicity
- acyltransferase activity, strain expressing the yeast gene ([3]; membranes of low copy plasmid strain): potently inhibited
- acylation of GlcN-PI ([3]; yeast membrane preparations, inactive analog at 10 μM): inhibited the acylation of GlcN-PI at low micromolar concentration
- growth inhibition [4]: inhibited the growth
- growth inhibition [5]: inhibited the growth
